Values quoted from earlier work as cited in patent publication US20120009644A1, “Tissue Implants for Implantation and Methods for Preparing the Same” (CRYOLIFE, INC., priority 2010, published 2012).

System: sensitive bacteria
Details: literature review

## NCC[C@H](O)C(=O)N[C@@H]1C[C@H](N)[C@@H](O[C@H]2O[C@H](CN)[C@@H](O)[C@H](O)[C@H]2O)[C@H](O)[C@H]1O[C@H]1O[C@H](CO)[C@@H](O)[C@H](N)[C@H]1O [amikacin]
  minimum inhibitory concentration against sensitive bacteria (MIC) range: 0.125 to 32 mg/L
